Earlier results on one sequence are cited in patent US20260364145A1, “MODIFIED CAVEOLIN-1 PEPTIDE FORMULATIONS AND METHODS OF MANUFACTURING AND USE THEREOF” (REIN THERAPEUTICS, INC., priority 2023, published 2026).

Details in all cases: cited from earlier work
The subject of data set [1] is Cav-1 interaction with SRC kinases.
Another data set deals with fibrosis.
Data set [2] concerns Wnt-signaling, β-catenin-mediated transcription, activation of SRC, EGFR, MEK1 and ERK-2.

Take DGIWKASFTTFTVTKYWFYR [CSP 20-mer]: the “effect on Cav-1 interaction with SRC kinases” value in data set [1] is given as “interferes with Cav-1 interaction with SRC kinases”. For the same sequence, the effect on fibrosis entry in the data set on fibrosis (animal models) is on record as “prevent, limit, or reverse fibrosis in animal models”. Moreover, the “effect on lung aSMA, epithelial apoptosis, collagen and profibrogenic signaling” value in the data set on fibrosis (in vivo) is “reduced lung aSMA and lung epithelial apoptosis, reduced collagen deposition, and down-regulation of expression of profibrogenic signaling molecules”. Moreover, in data set [2], the effect on signaling entry is “inhibition of Wnt-signaling, β-catenin-mediated transcription, activation of SRC, EGFR, MEK1 and ERK-2”.
